Reference: BindingDB's records for doi:10.1021/acs.jmedchem.5b01801 (University of Liverpool, 2016)

Assay: Inhibition of Cyclophilin D (unknown origin) activity preincubated for 15 mins followed Suc-AAPF-pNA substrate addition by chymotrypsin coupled based spectrophotometry assay

| Ki [µM] | Compound |
| --- | --- |
| 2.6 | CCOC(=O)CNC(=O)NCc1ccc(NC(C)=O)cc1 |
| 4.9 | Nc1ccc(CNC(=O)NCC(=O)N2CCCC2)cc1 |
